Experimental data: US20260191900A1, “Biofilm Treatment” (Phytoceutical Limited, priority 2022, published 2026)
≈ marks a conversion by molar mass, not a printed value.

Columns and labels:
[1] = system: S. aureus (NCTC12493; MRSA); assay: MIC, broth microdilution; type: cell-based, Staphylococcus aureus; settings: for MIC: Staphylococcus aureus
Experimental: (§1) Staphylococcus aureus (NCTC12493; MRSA) and Pseudomonas aeruginosa (NCTC12903) were stored in Pro-Lab Diagnostics Microbank (Fisher, Basingstoke UK) tubes at −80° C. before streaking onto Nutrient Agar (Oxoid, Basingstoke, UK) and incubated at 37° C., aerobically for 18 hours.
(§2) Minimum inhibitory concentrations (MICs) were determined using the broth microdilution method (EUCAST, Clinical Microbiology and Infection (2003), 9(8)). The inoculated liquid culture (grown dynamically overnight at 37° C. in MHB) was adjusted to obtain a ~0.1 OD at 600 nm, equivalent to a 0.5 McFarland Standard. A range of concentrations (diluted in MHB) for each of the compounds were prepared in 96-well plates, followed by the addition of the inoculated media. The plates were then incubated statically for 18 hours at 37° C. Following the incubation period, the lowest concentration of compound presenting an inhibition of bacterial growth was labelled the MIC.

[2] = system: P. aeruginosa (NCTC12903); assay: MIC, broth microdilution; type: cell-based, Pseudomonas aeruginosa; settings: for MIC: Pseudomonas aeruginosa, NCTC12903
Experimental: as §1, §2

[3] = system: P. aeruginosa (NCTC12903) biofilm; assay: Crystal violet biofilm clearance assay; type: cell-based, Pseudomonas aeruginosa; settings: for amount of biofilm present after treatment (CV stain, OD 600 nm): FIG. 2, 0.000625% PHMB, 10% TPGS, 10% EM, 6.25% EtOH, dosed at different days, 24 hours, vs untreated control; for percentage biofilm remaining / amount of biofilm remaining: FIG. 3, 0.1% PHMB, 10% TPGS or both; for percentage biofilm remaining: treated at day 0; for amount of biofilm remaining: treatment at day 1, 2 or 3
Experimental: as §1
(§3) The two strains of bacteria were produced using different media, with no flocculation occurring. S. aureus was produced using Dulbecco's Modified Eagle Medium and took five to seven days to grow a mature biofilm. P. aeruginosa was produced using M9 minimal media and 1% glucose media and took three days to grow a mature biofilm. Alternatively, Luria-Bertani (LB) broth could be used to grow P. aeruginosa.
(§4) The biofilm growth method and visualisation/analysis techniques were followed from J. Merritt et al. (Curr Protoc Microbiol. (2005); Chapter 1:Unit 1B.1), with modifications. S. aureus (NCTC12493) was grown in DMEM and P. aeruginosa (NCTC12903) was grown in M9 minimal media+1% glucose. Inoculated liquid culture was diluted in 1:100 in their respective medias. Into 96-well plates, 100 μL of the inoculant was added to each well. Following this, the plate was covered with a lid and incubated at 37° C. for 24-hour intervals of up to 7 days, aerobically. The compounds were added and incubated at 37° C. for a further 24 hours. Planktonic bacteria were removed using a pipette, and the biofilms were washed with Milli-Q water. To each well, 125 μL of 0.1% crystal violet (CV) solution was added and left at room temperature for 10-15 minutes. After this, the 0.1% CV solution was removed, and the well was washed until the waste ran clear. The stain was left to air-dry, before 200 μL 30% acetic acid was added to each well for 15 minutes on a plate shaker. To a new 96-well plate, 125 μL stained biofilm solution was transferred and the optical density was read at 600 nm. A comparison was made between the uninhibited biofilm and any biofilm reductions capabilities of the added compounds.
(§5) The candidate compounds were each, therefore, applied at their respective MIC values.
(§6) Bacterial growth kinetics of S. aureus grown in DMEM and P. aeruginosa grown in M9 minimal media+1% glucose were determined. The amount of biofilm remaining was determined using the CV staining method as described above.

[4] = system: S. aureus (NCTC12493) biofilm; assay: Crystal violet biofilm clearance assay; type: cell-based, Staphylococcus aureus; settings: for amount of biofilm present after treatment (CV stain, OD 600 nm): FIG. 2, 0.000625% PHMB, 10% TPGS, 10% EM, 6.25% EtOH, dosed at day 0 to 7, 24 hours, vs untreated control; for percentage biofilm remaining / amount of biofilm remaining: FIG. 3, 0.1% PHMB, 10% TPGS or both; for percentage biofilm remaining: treated at day 0; for amount of biofilm remaining: treatment at day 1, 2 or 3
Experimental: as §1, §3, §4, §5, §6

Fibroblasts [5] = assay: SRS-SHG microscopy of fibroblasts exposed to retinol; type: cell-based; settings: 0.31 μg/mL or 0.25 μg/mL; days 1, 3 and 7
Experimental: Fibroblasts were exposed to compositions containing 0.31 μg/mL or 0.25 μg/mL, and a control sample with no retinol, over a period of 7 days. SRS-SHG microscopy was used to determine absorption of the retinol by the fibroblasts at days 1, 3 and 7 after exposure.

Fibroblasts [6] = assay: Toxicity of retinol to fibroblasts; type: cell-based
[7] = Ex-vivo skin penetration, Franz diffusion cells, SRS imaging; type: in vitro ADME, pig
Experimental: Skin penetration studies were performed on dermatomed porcine skin, dosed using vertical Franz diffusion cells.
A scalpel was used to cut each Franz cell disc into a smaller portion for sectioning, and was sanitised with ethanol between samples. A fresh cryostat blade was used for each sample. The cryostat temperature was set to −33° C., and samples equilibrated in the cryostat for approximately 45 minutes prior to sectioning.
After 24 hours, the skin surface was cleaned and cross-sections 30 μm thick were prepared using cryosectioning and mounted onto glass coverslips. SRS (stimulated raman spectroscopy) imaging was used to observe the penetration of the composition through the skin.
SRS imaging used a Leica SP8 microscope with SRS and CARS. A PicoEmerald-S laser system output two pulsed 2 ps laser beams (a 1031 nm Stokes beam spatially and temporally overlapped with a tuneable pump beam). The Stokes beam was modulated at 20 MHz and stimulated Raman loss signals were detected in transmission using a lock-in amplifier (UHFLI, Zurich instruments). CARS and SHG/fluorescence signals were epi-detected in separate PMT channels. A water immersion×25 magnification lens (0.95 NA, Leica) was used. A short working distance air condenser (0.9 NA, Leica) was used. Laser power was 30%, which corresponded to approximately 10 mW for the pump beam and 30 mW for the Stokes beam at the sample. […]

S. aureus (NCTC12493) = assay: CFU count after treatment of biofilm; type: cell-based, Staphylococcus aureus; settings: FIG. 3; 10% TPGS or 0.1% PHMB with 10% TPGS; treated on any day
Experimental: (§7) The amount of biofilm remaining was determined using the CV staining method as described above. CFU count was determined by the following method: The inoculated liquid culture (grown dynamically overnight at 37° C. in liquid growth media) was spun down in a centrifuged (at max (13.3) speed for 5 minutes) (reference). The supernatant was removed and resuspend in PBS (1:100 dilution). Into each well, 20 μL of inoculated culture LB broth was added to 180 μL LB broth. […] For the untreated wells, 1 μL of PBS was added. The 96-well plate was placed in a TECAN measuring at OD600 over 24 hours at 15-minute intervals. Resulting growth kinetic experiments were conducted using mid-logarithmically growing cultures. […] Following this, the wells were homogenised, and 20 μL samples were plate spotted onto nutrient agar (NA). These plates were incubated for 18 hours at 37° C. before colonies were counted.

[8] = system: P. aeruginosa (NCTC12903); assay: CFU count after treatment of biofilm; type: cell-based, Pseudomonas aeruginosa; settings: FIG. 3; 10% TPGS or 0.1% PHMB with 10% TPGS; treated on any day
Experimental: as §7

[9] = concentration before inoculation, 18 hours at 37° C., vehicle ethanol or water
[10] = concentration before inoculation, 18 hours at 37° C., vehicle ethanol, water or none
[11] = vehicle TPGS (curcumin solubilised in TPGS)

COc1cc(/C=C/C(=O)CC(=O)/C=C/c2ccc(O)c(OC)c2)ccc1O [Curcumin]
MIC [1, 9]: 2 mg/mL (≈ 5.43 mM) | MIC, S. aureus [1, 10]: 0.2 w/v % | MIC, S. aureus [1, 11]: 0.0125 w/v % | MIC [2, 9]: 2 mg/mL (≈ 5.43 mM) | MIC, P. aeruginosa [2, 10]: 0.2 w/v % | MIC, P. aeruginosa [2, 11]: 0.1 w/v %

CCO [Ethanol]
amount of biofilm present after treatment (CV stain, OD 600 nm) [3]: little to no effect | amount of biofilm present after treatment (CV stain, OD 600 nm) [4]: at TO there was an increase in biofilm | MIC, S. aureus [1, 10]: 6.25 w/v % | MIC, P. aeruginosa [2, 10]: 6.25 w/v %

CC1=C(/C=C/C(C)=C/C=C/C(C)=C/CO)C(C)(C)CCC1 [Retinol]
response of fibroblasts (SHG signals outside of nuclei) (Fibroblasts [5]): concentration and time dependent response | concentration not toxic to fibroblasts (Fibroblasts [6]): ≤ 6000 ng/mL | MIC [1, 9]: 50 mg/mL (≈ 175 mM) | MIC, S. aureus [1, 10]: 5 w/v % | depth through the skin down to which retinol was observed ([7]; composition comprising retinol and TPGS applied to pig skin for 24 hours): 60 μm | penetration of the retinol into the skin ([7]; similar experiment, composition including PHMB (1 wt %)): did not show penetration | MIC [2, 9]: 50 mg/mL (≈ 175 mM) | MIC, P. aeruginosa [2, 10]: 5 w/v %

Polysorbate 40
MIC, S. aureus [1, 10]: >25% w/v % | MIC, P. aeruginosa [2, 10]: >25% w/v %

polyhexamethylene biguanide [PHMB]
amount of biofilm present after treatment (CV stain, OD 600 nm) [3]: an increase in biofilm when dosed on T1 | percentage biofilm remaining [3]: fully reducing the biofilm remaining | amount of biofilm remaining [3]: effective | amount of biofilm present after treatment (CV stain, OD 600 nm) [4]: good biofilm clearance | percentage biofilm remaining [4]: fully reducing the biofilm remaining | amount of biofilm remaining [4]: effective | concentration inhibiting S. aureus growth (MIC) [1]: 0.000625 % v/v | MIC, S. aureus [1, 10]: 0.000625 w/v % | concentration inhibiting P. aeruginosa growth (MIC) [2]: 0.005 % v/v | MIC, P. aeruginosa [2, 10]: 0.005 w/v %

tocopheryl polyethylene glycol succinate [TPGS]
amount of biofilm present after treatment (CV stain, OD 600 nm) [3]: the most effective compound | percentage biofilm remaining [3]: fully reducing the biofilm remaining | amount of biofilm remaining [3]: effective | amount of biofilm present after treatment (CV stain, OD 600 nm) [4]: a reduction in the amount of biofilm present | percentage biofilm remaining [4]: fully reducing the biofilm remaining | amount of biofilm remaining [4]: effective | CFU count (S. aureus (NCTC12493)): remained substantially constant | concentration inhibiting S. aureus growth (MIC) [1]: 10 % v/v | MIC, S. aureus [1, 9]: (200) mg/mL | MIC, S. aureus [1, 10]: 20 w/v % | concentration inhibiting P. aeruginosa growth (MIC) [2]: 20 % v/v | MIC, P. aeruginosa [2, 9]: (200) mg/mL | MIC, P. aeruginosa [2, 10]: 20 w/v % | CFU count [8]: remained substantially constant
